From patent US20250249056A1, “CANCER THERAPIES COMPRISING A NUCLEAR EXPORT INHIBITOR AND AN ONCOLYTIC VIRUS” (priority 2022, published 2025)

System: Colo205 cells
Format: cell-based, human
Details: selinexor-treated cytoplasm vs control cytoplasm

SMILES: O=C(/C=C\n1cnc(-c2cc(C(F)(F)F)cc(C(F)(F)F)c2)n1)NNc1cnccn1 [selinexor]
- Differential protein expression, PLEKHS1 (Q5SXH7): 2.039
- Differential protein expression, RSBN1 (Q5VWQ0): 100
- Differential protein expression, ZMYM4 (Q5VZL5): 0.01
- Differential protein expression, RPL7L1 (Q6DKI1): 0.463
- Differential protein expression, DMKN (Q6E0U4): 0.02
- Differential protein expression, NCAPH2 (Q6IBW4): 0.01
- Differential protein expression, LIN54 (Q6MZP7): 0.426
- Differential protein expression, POMZP3 (Q6PJE2): 100
- Differential protein expression, CCDC137 (Q6PK04): 0.426
- Differential protein expression, MPRIP (Q6WCQ1): 0.01
- Differential protein expression, NCCRP1 (Q6ZVX7): 2.342
- Differential protein expression, LPCAT2 (Q7L5N7): 2.194
- Differential protein expression, CXXC5 (Q7LFL8): 0.01
- Differential protein expression, KRT74 (Q7RTS7): 4.935
- Differential protein expression, KRT28 (Q7Z3Y7): 2.439
- Differential protein expression, KRT27 (Q7Z3Y8): 2.607
- Differential protein expression, KRT25 (Q7Z3Z0): 2.607
- Differential protein expression, MYH14 (Q7Z406): 2.01
- Differential protein expression, KRT78 (Q8N1N4): 2.84
- Differential protein expression, PIAS4 (Q8N2W9): 0.01
- Differential protein expression, GPATCH11 (Q8N954): 100
- Differential protein expression, KDM1B (Q8NB78): 0.01
- Differential protein expression, RNF169 (Q8NCN4): 100
- Differential protein expression, PHC3 (Q8NDX5): 100
- Differential protein expression, PPHLN1 (Q8NEY8): 0.01
- Differential protein expression, GDAP1 (Q8TB36): 2.559
- Differential protein expression, CIP2A (Q8TCG1): 0.239
- Differential protein expression, CHD6 (Q8TD26): 0.01
- Differential protein expression, GPT2 (Q8TD30): 0.411
- Differential protein expression, RB1CC1 (Q8TDY2): 100
- Differential protein expression, ZNF384 (Q8TF68): 0.01
- Differential protein expression, U2AF1L4 (Q8WU68): 2.738
- Differential protein expression, TSEN15 (Q8WW01): 0.497
- Differential protein expression, NIPSNAP1 (Q9BPW8): 0.499
- Differential protein expression, SH2D3A (Q9BRG2): 100
- Differential protein expression, WDR83 (Q9BRX9): 100
- Differential protein expression, TPPP3 (Q9BW30): 2.408
- Differential protein expression, LSM14B (Q9BX40): 0.437
- Differential protein expression, TTYH3 (Q9C0H2): 0.47
- Differential protein expression, BRD8 (Q9H0E9): 0.01
- Differential protein expression, WWP1 (Q9H0M0): 2.549
- Differential protein expression, TASP1 (Q9H6P5): 100
- Differential protein expression, RPF2 (Q9H7B2): 2.588
- Differential protein expression, CAAP1 (Q9H8G2): 100
- Differential protein expression, BRD9 (Q9H8M2): 0.01
- Differential protein expression, ING2 (Q9H160): 100
- Differential protein expression, SDCBP2 (Q9H190): 2.885
- Differential protein expression, EPB41L4B (Q9H329): 2.055
- Differential protein expression, FOXP1 (Q9H334): 0.01
- Differential protein expression, SP110 (Q9HB58): 0.01
- Differential protein expression, PATZ1 (Q9HBE1): 100
- Differential protein expression, SPC25 (Q9HBM1): 0.479
- Differential protein expression, AGO4 (Q9HCK5): 2.165
- Differential protein expression, TCF7L1 (Q9HCS4): 5.627
- Differential protein expression, MLXIPL (Q9NP71): 0.379
- Differential protein expression, TCF7L2 (Q9NQB0): 0.01
- Differential protein expression, STRN4 (Q9NRL3): 100
- Differential protein expression, RAD18 (Q9NS91): 100
- Differential protein expression, DIAPH3 (Q9NSV4): 0.233
- Differential protein expression, MBNL3 (Q9NUK0): 2.509
- Differential protein expression, MRGBP (Q9NV56): 100
- Differential protein expression, EXD2 (Q9NVH0): 2.016
- Differential protein expression, ASF1B (Q9NVP2): 0.458
- Differential protein expression, SDHAF2 (Q9NX18): 0.346
- Differential protein expression, EHF (Q9NZC4): 0.01
- Differential protein expression, MACROH2A2 (Q9P0M6): 100
- Differential protein expression, SENP1 (Q9POU3): 0.01
- Differential protein expression, m101L (Q9Q8J9): 2.679
- Differential protein expression, m097R (Q9Q8K3): 100
- Differential protein expression, m094R (Q9Q8K6): 0.01
- Differential protein expression, m089L (Q9Q8L1): 0.01
- Differential protein expression, m048L (Q9Q8P8): 2.287
- Differential protein expression, m043L (Q9Q8Q3): 0.01
- Differential protein expression, m042L (Q9Q8Q4): 0.01
- Differential protein expression, m032R (Q9Q8R4): 100
- Differential protein expression, DNAJB4 (Q9UDY4): 3.313
- Differential protein expression, DAXX (Q9UER7): 100
- Differential protein expression, MLX (Q9UH92): 0.453
- Differential protein expression, ADGRE2 (Q9UHX3): 0.491
- Differential protein expression, RASAL2 (Q9UJF2): 0.01
- Differential protein expression, LEF1 (Q9UJU2): 5.627
- Differential protein expression, ANAPC2 (Q9UJX6): 0.336
- Differential protein expression, GGA2 (Q9UJY4): 0.442
- Differential protein expression, CCNL1 (Q9UK58): 3.386
- Differential protein expression, RALY (Q9UKM9): 2.03
- Differential protein expression, YEATS2 (Q9ULM3): 100
- Differential protein expression, NOB1 (Q9ULX3): 0.407
- Differential protein expression, FZR1 (Q9UM11): 4.964
- Differential protein expression, NOL7 (Q9UMY1): 0.431
- Differential protein expression, LIMCH1 (Q9UPQ0): 0.01
- Differential protein expression, AGAP1 (Q9UPQ3): 2.271
- Differential protein expression, DNM3 (Q9UQ16): 100
- Differential protein expression, JRKL (Q9Y4A0): 0.474
- Differential protein expression, DCAF1 (Q9Y4B6): 0.482
- Differential protein expression, UTP18 (Q9Y5J1): 0.493
- Differential protein expression, ST14 (Q9Y5Y6): 2.934
- Differential protein expression, RBMX2 (Q9Y388): 100
- Differential protein expression, PSAT1 (Q9Y617): 0.469
- Differential protein expression, SLC12A7 (Q9Y666): 0.497
- Differential protein expression, mt6 (Q9YQ03): 0.01
- Differential protein expression, GLE1 (Q53GS7): 0.329
- Differential protein expression, INO80D (Q53TQ3): 100
- Differential protein expression, NAIF1 (Q69Y17): 0.374
- Differential protein expression, H3C13; H3C14; H3C15 (Q71DI3): 3.19
- Differential protein expression, TADA2B (Q86TJ2): 0.246
- Differential protein expression, RPS19BP1 (Q86WX3): 0.426
- Differential protein expression, KRT73 (Q86Y46): 4.935
- Differential protein expression, PBXIP1 (Q96AQ6): 2.168
- Differential protein expression, INTS12 (Q96CB8): 100
- Differential protein expression, LRRC58 (Q96CX6): 3.753
- Differential protein expression, RBMXL1 (Q96E39): 100
- Differential protein expression, MCRS1 (Q96EZ8): 0.01
- Differential protein expression, PERP (Q96FX8): 2.002
- Differential protein expression, LTV1 (Q96GA3): 0.288
- Differential protein expression, SMARCD1 (Q96GM5): 0.376
- Differential protein expression, ZNF668 (Q96K58): 0.01
- Differential protein expression, RNPC3 (Q96LT9): 100
- Differential protein expression, PWWP2A (Q96N64): 0.01
- Differential protein expression, SERPINB12 (Q96P63): 3.145
- Differential protein expression, SLC38A2 (Q96QD8): 0.262
- Differential protein expression, PHF12 (Q96QT6): 100
- Differential protein expression, SMC6 (Q96SB8): 0.01
- Differential protein expression, CDK3 (Q00526): 0.01
- Differential protein expression, ARL11 (Q969Q4): 2.014
- Differential protein expression, U2AF1 (Q01081): 2.205
- Differential protein expression, KRT76 (Q01546): 2.236
- Differential protein expression, SP2 (Q02086): 0.01
- Differential protein expression, PCDH1 (Q08174): 3.649
- Differential protein expression, DSC1 (Q08554): 2.044
- Differential protein expression, CDH17 (Q12864): 5.81
- Differential protein expression, PRDM2 (Q13029): 0.499
- Differential protein expression, KRR1 (Q13601): 2.698
- Differential protein expression, AAMP (Q13685): 0.385
- Differential protein expression, RUNX2 (Q13950): 0.192
- Differential protein expression, CDK13 (Q14004): 2.192
- Differential protein expression, TFDP2 (Q14188): 0.48
